Assay results: patent US10767179B2, “MicroRNA composition for the treatment of neuroblastoma” (THE BOARD OF REGENTS OF THE UNIVERSITY OF TEXAS SYSTEM, priority 2014, dated 2020)

Key:
Format in all cases: cell-based
BE(2)-C cells [1] = assay: High-content screen: detection and quantification of neurite outgrowth; set-up: key: neurite length normalized to the mean of its plate; settings: 25 nM miRNA mimic, 4 days transfection, normalized to plate mean
Procedure: FIG. 2A-2C. HCS screening of miRNA mimics identifies miRNAs that induce neurite outgrowth in BE(2)-C cells. (A-B) 2,500 cells were reverse-transfected with 25 nM miRNA mimics in 96-well plates. After 4 days transfection, relative neurite lengths were quantified as above. (A) The distribution of post-normalized neurite length measurements (grey histogram) for individual miRNA mimics from the screen and the fitted Gamma distribution curve (␣=3.27, ┘=0.444) (B) Correlation between two independent neurite length measurements for one library plate. Cells were transfected with 25 nM mimics in two independent 96-well plates. Normalized neurite lengths were measured as above. Correlation of neurite length between the two plates was analyzed using two-tailed Pearson Correlation with p<0.05 considered significant. (C) The distribution of the neurite lengths for untreated BE(2)-C cells. 2,500 Cells were plated into each well in 96 well plates. After 4 days of culture, neurite lengths were analyzed as above. Shown are the neurite length distribution histogram, the empirical density curve, and the fitted Gamma distribution curve (␣=30.23, ␣=0.033).
Detection and Quantification of Neurite Outgrowth. Cells were plated and treated in 96-well plates. For detecting neurite outgrowth, cells were placed into ZOOM IncuCyte Imaging System (Essen BioScience) and cell images were taken under 20× microscopic magnification. For detecting neurite outgrowth in a time-dependent manner, cell images were taken every 6 h. The neurite lengths associated with each treatment were calculated using the neurite definition defined for each specific cell line using the NeuroTrack system (Essen BioScience).
Analysis of HCS Data. The relative neurite length associated with cells in each well on the screen plates was determined as above. In order to allow for plate-to-plate comparison, neurite length associated with each well in each plate was first internally normalized to the mean of the corresponding plate, and multiple screen plates were then aggregated together to generate the neurite length distribution. The data were then further analyzed to determine the distribution of the unaffected cells as described below, and to identify differentiation-inducing miRNA mimics.
Statistical Analysis. For HCS, p-value for neurite length associated with each miRNA mimic was evaluated by assuming the distribution of neurite lengths follows Gamma distribution, and false Discovery Rate (FDR) was determined by Benjamini-Hochberg correction method for multiple tests (Benjamin, Journal of the Royal Statistical Society Series B (Methodological), 1995, 57(1):12). […] For all other conditions, the statistical significance for each treatment was determined using t-test by comparing the treatment group with control, with p<0.05 considered statistically significant.

BE(2)-C cells [2] = assay: Cell Viability Assay (CellTiter-Glo)
Procedure: Cell Viability Assay. Cells were plated in 96-well format and treated as specified. After culturing for 120 h, cell viability was determined using the CellTiter-Glo Luminescent Cell Viability Assay (Promega).

[3] = system: GAP43, NSE and β-TUBULIN III; assay: Western blots of differentiation markers in BE(2)-C cells; settings: ATRA 5 days, dose-dependent
Procedure: (§1) Western Blots. Cell lysates were prepared using RIPA buffer. Protein concentration was determined using the Pierce BCA assay (Thermo Fisher Scientific). For electrophoresis, equal amounts of cell lysate were resolved by SDS-PAGE and transferred to Immun-Blot PVDF membranes (Bio-Rad Laboratories). Membranes were blocked and probed with primary antibodies to specific proteins. Bound antibodies were detected with secondary antibodies conjugated with horseradish peroxidase (HRP) visualized by enhanced chemiluminescent (ECL) substrate (Pierce).

PCNA and Ki67 = assay: Western blots of cell proliferation markers in BE(2)-C cells; settings: ATRA 5 days, dose-dependent
Procedure: as §1

[4] = system: cleaved CASPASE 3 and PARP; assay: Western blots of apoptosis markers in BE(2)-C cells; settings: ATRA 5 days, dose-dependent
Procedure: as §1

BE(2)-C cells [5] = assay: High-content screen: detection and quantification of neurite outgrowth; settings: ATRA vs carrier (DMSO), 5 days

In the case of “hsa-miR-449b-5p: miRNA mimic, mature sequence AGGCAGUGUAUUGUUAGCUGGC (SEQ ID NO: 15) (AGGCAGUGUAUUGUUAGCUGGC(2); as printed in the source, key not given here)”, the “Neurite length (mean ± SD)” value (BE(2)-C cells [1]) is reported as 7.40 ± 1.85.
For “hsa-miR-3937: miRNA mimic, mature sequence ACAGGCGGCUGUAGCAAUGGGGG (SEQ ID NO: 17) (listed as RNA, chemistry not given here)”, the “Neurite length (mean ± SD)” value (BE(2)-C cells [1]) was 6.93 ± 1.05.
“hsa-miR-107: miRNA mimic, mature sequence AGCAGCAUUGUACAGGGCUAUCA (SEQ ID NO: 13) (AGCAGCAUUGUACAGGGCUAUCA(3); as printed in the source, key not given here)” was tested, and the “Neurite length (mean ± SD)” value (BE(2)-C cells [1]) was 7.60 ± 1.98.
With “hsa-miR-450b-3p: miRNA mimic, mature sequence UUGGGAUCAUUUUGCAUCCAUA (SEQ ID NO: 9) (listed as RNA, chemistry not given here)” the “Neurite length (mean ± SD)” value (BE(2)-C cells [1]) was 9.26 ± 2.64.
In the case of “hsa-miR-135b-5p: miRNA mimic, mature sequence UAUGGCUUUUCAUUCCUAUGUGA (SEQ ID NO: 6) (listed as RNA, chemistry not given here)”, the “Neurite length (mean ± SD)” value (BE(2)-C cells [1]) is reported as 14.02 ± 4.29.
“hsa-miR-103a-3p: miRNA mimic, mature sequence AGCAGCAUUGUACAGGGCUAUGA (SEQ ID NO: 8) (AGCAGCAUUGUACAGGGCUAUGA(3); as printed in the source, key not given here)” was tested, and the “Neurite length (mean ± SD)” value (BE(2)-C cells [1]) was 9.43 ± 2.67.
For “hsa-miR-34a-5p: miRNA mimic, mature sequence UGGCAGUGUCUUAGCUGGUUGU (SEQ ID NO: 7) (UGGCAGUGUCUUAGCUGGUUGU(2); as printed in the source, key not given here)”, the “Neurite length (mean ± SD)” value (BE(2)-C cells [1]) was 9.49 ± 3.18.
With `CC1=C(/C=C/C(C)=C/C=C/C(C)=C\C(=O)O)C(C)(C)CCC1` [cis-RA, 13-cis retinoic acid] the “Cell viability when reaching plateau” value (BE(2)-C cells [2]; treated for 5 days) was 42.6±3.7%.
For “hsa-miR-34b-Sp: miRNA mimic, mature sequence UAGGCAGUGUCAUUAGCUGAUUG (SEQ ID NO: 12) (listed as RNA, chemistry not given here)”, the “Neurite length (mean ± SD)” value (BE(2)-C cells [1]) was 8.41 ± 2.16.
For `CC1=C(/C=C/C(C)=C/C=C/C(C)=C/C(=O)O)C(C)(C)CCC1` [ATRA, all-trans retinoic acid], the Cell viability (BE(2)-C cells [2]; 5 days, dose-dependent) was “decreases cell viability”, the “Expression of neuroblastoma differentiation markers (GAP43, NSE, β-TUBULIN III)” value [3] was “stimulates expression of neuroblastoma differentiation markers” and the “Expression of cell proliferation markers (PCNA, Ki67)” value (PCNA and Ki67) was “inhibits expression of cell proliferation markers”. For the same compound, the “Expression of apoptosis markers (cleaved CASPASE 3, PARP)” value [4] was “increases expression of apoptosis markers” and the “Relative neurite length compared to control” value (BE(2)-C cells [5]) was “significantly increases the relative neurite length”.
In the case of “hsa-miR-137: miRNA mimic, mature sequence UUAUUGCUUAAGAAUACGCGUAG (SEQ ID NO: 16) (listed as RNA, chemistry not given here)”, the “Neurite length (mean ± SD)” value (BE(2)-C cells [1]) is reported as 7.03 ± 1.36.
“hsa-miR-449a: miRNA mimic, mature sequence UGGCAGUGUAUUGUUAGCUGGU (SEQ ID NO: 10) (UGGCAGUGUAUUGUUAGCUGGU(2); as printed in the source, key not given here)” was tested, and the “Neurite length (mean ± SD)” value (BE(2)-C cells [1]) was 9.16 ± 2.47.
In the case of “hsa-miR-3714: miRNA mimic, mature sequence GAAGGCAGCAGUGCUCCCCUGU (SEQ ID NO: 14) (listed as RNA, chemistry not given here)”, the “Neurite length (mean ± SD)” value (BE(2)-C cells [1]) is reported as 7.56 ± 1.91.
